Assay results as given in paper PMC3961628 (American Journal of Cardiovascular Drugs, 2013).
Like-named read-outs stand apart in the source and are kept apart here.

Columns and labels:
[1] = single oral 20-mg radiolabeled dose; bile collected 3–8 h after dose; cited from earlier work
[2] = Safety assessments; type: in vivo, healthy human subjects
[3] = BDC dogs, cited from earlier work
[4] = type: in vivo, healthy human subjects; conditions: for AUC(0-t) / AUC(0-inf) / Cmax: geometric mean (% CV); for AUC(0-inf): AUCINF; for Cmax: C max; for half-life: T ½
[5] = cited from earlier work
[6] = cited from earlier work; remark: listed apart in the source
[7] = tested on: major uptake transporters; conditions: cited from earlier work
[8] = Stability of apixaban in human plasma; type: in vitro ADME; conditions: at −20 °C
[9] = BDC rats, intravenous [14C]apixaban; cited from earlier work
[10] = human, plasma, oral, 20 mg, Treatment A: apixaban 20 mg alone, n = 18
[11] = human, plasma, oral, Treatment B: apixaban 20 mg + activated charcoal 2 h after apixaban, n = 14
[12] = human, plasma, oral, Treatment C: apixaban 20 mg + activated charcoal 6 h after apixaban, n = 17
[13] = apixaban 2.5 mg solution released in the ascending colon
[14] = apixaban 2.5 mg solution released in the distal small bowel

T ½ ([4]; Treatment A: apixaban 20 mg alone, n = 18, mean (SD)): 13.4 (5.1) h
T max ([4]; Treatment C: apixaban 20 mg + activated charcoal 6 h after apixaban, n = 17, median (range)): 2.5 (1.5–4.0) h
Decrease in apixaban exposure (AUCINF) vs apixaban alone ([4]; activated charcoal administered at 2 h post-dose): 50%
Decrease in apixaban exposure (AUCINF) vs apixaban alone ([4]; activated charcoal administered at 6 h post-dose): 28%
Effect of activated charcoal on C max or T max of apixaban ([4]; charcoal at 2 or 6 h post-dose): no effect
Tmax ([4]; human, plasma, oral, 20 mg): 2.5 h
AUC(0-t) [4, 10]: 4.08 µg·h/mL
AUC(0-inf) [4, 10]: 4.19 µg·h/mL
Cmax [4, 10]: 0.38 µg/mL
AUC(0-t) ([4]; human, plasma, oral, Treatment B: apixaban 20 mg + activated charcoal 50 g 2 h after apixaban, n = 14): 2.01 µg·h/mL
AUC(0-t) ([4]; human, plasma, oral, Treatment C: apixaban 20 mg + activated charcoal 50 g 6 h after apixaban, n = 17): 2.95 µg·h/mL
AUC(0-inf) [4, 11]: 2.03 µg·h/mL
AUC(0-inf) [4, 12]: 2.98 µg·h/mL
Cmax [4, 11]: 0.366 µg/mL
Cmax [4, 12]: 0.383 µg/mL
half-life ([4]; human, plasma, oral, Treatment B: apixaban 20 mg + activated charcoal 2 h after apixaban, n = 14, mean (SD)): 5.3 h
half-life ([4]; human, plasma, oral, Treatment C: apixaban 20 mg + activated charcoal 6 h after apixaban, n = 17, mean (SD)): 4.9 h
Time for which mean plasma concentrations were quantifiable ([4]; single oral 20-mg dose without activated charcoal, LLOQ 1 ng/mL): up to 72 h
Stability in human plasma [8]: at least 864 days
SMILES: COc1ccc(-n2nc(C(N)=O)c3c2C(=O)N(c2ccc(N4CCCCC4=O)cc2)CC3)cc1 [apixaban, 1-(4-methoxyphenyl)-7-oxo-6-(4-(2-oxopiperidin-1-yl)phenyl)-4,5,6,7-tetrahydro-1H-pyrazolo[3,4-c]pyridine-3-carboxamide]
Biliary excretion, share of total recovered radioactivity [1]: less than 3%
Proportion of subjects reporting adverse events ([2]; apixaban 20 mg alone): 16.7%
Tolerability ([2]; healthy subjects, single 20-mg doses): well tolerated
Dose found in feces ([3]; intravenous [14C]apixaban): 40–50 % of the dose
Effect of activated charcoal on fecal recovery and apparent systemic clearance [3]: increased fecal recovery and apparent systemic clearance
Oral bioavailability ([5]; background statement): approximately 50%
Effect of food and changes in gastric pH on apixaban exposure [5]: no clinically relevant effect
Terminal half-life (T ½) [5]: approximately 12 h
Time to peak plasma concentration (C max) ([5]; oral administration, immediate-release tablet, background statement): approximately 3 h
AUC(0–T) lower than with oral administration [6, 13]: 84%
C max lower than with oral administration [6, 13]: 90%
AUC(0–T) lower than with oral administration [6, 14]: approximately 60%
C max lower than with oral administration [6, 14]: approximately 60%
Substrate status for major uptake transporters [7]: not a substrate
Dose found in feces [9]: 20–30 % of the dose
